According to ChEMBL document CHEMBL4507269, “Data for DCP probe BAY-386” (2021):

Legend:
[1] = target: Phosphatidylinositol 4,5-bisphosphate 3-kinase catalytic subunit gamma isoform (Homo sapiens) (UniProt P48736); settings: Compound concentration 1000.0 nM
[2] = target: Inhibitor of nuclear factor kappa-B kinase subunit alpha (Homo sapiens) (UniProt O15111); settings: Compound concentration 1000.0 nM
[3] = target: cGMP-dependent protein kinase 1 (Homo sapiens) (UniProt Q13976); settings: Compound concentration 1000.0 nM
[4] = target: Serine/threonine-protein kinase 36 (Homo sapiens) (UniProt Q9NRP7); settings: Compound concentration 1000.0 nM
[5] = target: Tyrosine-protein kinase JAK3 (Homo sapiens) (UniProt P52333); settings: Compound concentration 1000.0 nM
[6] = target: Atypical kinase COQ8B, mitochondrial (Homo sapiens) (UniProt Q96D53); settings: Compound concentration 1000.0 nM
[7] = target: Mitogen-activated protein kinase kinase kinase 15 (Homo sapiens) (UniProt Q6ZN16); settings: Compound concentration 1000.0 nM
[8] = target: Vascular endothelial growth factor receptor 1 (Homo sapiens) (UniProt P17948); settings: Compound concentration 1000.0 nM
[9] = target: Phosphatidylinositol 4-phosphate 3-kinase C2 domain-containing subunit beta (Homo sapiens) (UniProt O00750); settings: Compound concentration 1000.0 nM
[10] = target: Activin receptor type-2A (Homo sapiens) (UniProt P27037); settings: Compound concentration 1000.0 nM
[11] = target: Microtubule-associated serine/threonine-protein kinase 1 (Homo sapiens) (UniProt Q9Y2H9); settings: Compound concentration 1000.0 nM
[12] = target: Serine/threonine-protein kinase SIK3 (Homo sapiens) (UniProt Q9Y2K2); settings: Compound concentration 1000.0 nM
[13] = target: T1, Alpha-1A adrenergic receptor (Homo sapiens) (UniProt P35348); settings: Compound concentration 10.0 uM
T1 sequence (whole entry): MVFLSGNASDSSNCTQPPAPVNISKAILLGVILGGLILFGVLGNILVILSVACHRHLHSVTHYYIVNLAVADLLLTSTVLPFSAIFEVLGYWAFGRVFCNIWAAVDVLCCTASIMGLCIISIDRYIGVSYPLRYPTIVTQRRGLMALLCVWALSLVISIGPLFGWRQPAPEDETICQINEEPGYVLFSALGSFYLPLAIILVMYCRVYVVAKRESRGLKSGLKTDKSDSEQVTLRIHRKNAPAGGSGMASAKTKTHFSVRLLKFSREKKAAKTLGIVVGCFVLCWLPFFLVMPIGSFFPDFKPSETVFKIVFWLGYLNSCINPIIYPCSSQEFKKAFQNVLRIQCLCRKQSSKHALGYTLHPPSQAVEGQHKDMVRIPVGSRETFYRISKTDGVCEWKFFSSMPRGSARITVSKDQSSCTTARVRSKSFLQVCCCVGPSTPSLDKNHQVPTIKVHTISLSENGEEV

[14] = target: Phosphatidylinositol 4-phosphate 5-kinase type-1 alpha (Homo sapiens) (UniProt Q99755); settings: Compound concentration 1000.0 nM
[15] = target: Aurora kinase A (Homo sapiens) (UniProt O14965); settings: Compound concentration 1000.0 nM
[16] = target: Serine/threonine-protein kinase pim-2 (Homo sapiens) (UniProt Q9P1W9); settings: Compound concentration 1000.0 nM
[17] = target: Ephrin type-A receptor 2 (Homo sapiens) (UniProt P29317); settings: Compound concentration 1000.0 nM
[18] = system: Receptor-type tyrosine-protein kinase FLT3 (Homo sapiens), P36888 [D835V]; settings: Compound concentration 1000.0 nM
[19] = target: Leukocyte tyrosine kinase receptor (Homo sapiens) (UniProt P29376); settings: Compound concentration 1000.0 nM
[20] = target: Cyclin-dependent kinase-like 2 (Homo sapiens) (UniProt Q92772); settings: Compound concentration 1000.0 nM
[21] = target: 1-phosphatidylinositol 3-phosphate 5-kinase (Homo sapiens) (UniProt Q9Y2I7); settings: Compound concentration 1000.0 nM
[22] = target: Tyrosine-protein kinase SYK (Homo sapiens) (UniProt P43405); settings: Compound concentration 1000.0 nM
[23] = target: Receptor-type tyrosine-protein kinase FLT3 (Homo sapiens) (UniProt P36888); settings: Compound concentration 1000.0 nM
[24] = target: Wee1-like protein kinase 2 (Homo sapiens) (UniProt P0C1S8); settings: Compound concentration 1000.0 nM
[25] = target: Cyclin-dependent kinase 2 homolog (Plasmodium falciparum (isolate 3D7)) (UniProt P61075); settings: Compound concentration 1000.0 nM
[26] = target: Bone morphogenetic protein receptor type-2 (Homo sapiens) (UniProt Q13873); settings: Compound concentration 1000.0 nM
[27] = target: Delta-type opioid receptor (Homo sapiens) (UniProt P41143); settings: Compound concentration 10.0 uM
[28] = target: Tyrosine-protein kinase ABL1 (Homo sapiens) (UniProt P00519); settings: Compound concentration 1000.0 nM
[29] = target: Eukaryotic translation initiation factor 2-alpha kinase 1 (Homo sapiens) (UniProt Q9BQI3); settings: Compound concentration 1000.0 nM
[30] = system: Tyrosine-protein kinase ABL1 (Homo sapiens), P00519 [Q252H]; settings: Compound concentration 1000.0 nM
[31] = target: Serine/threonine-protein kinase NLK (Homo sapiens) (UniProt Q9UBE8); settings: Compound concentration 1000.0 nM
[32] = target: Tyrosine-protein kinase receptor TYRO3 (Homo sapiens) (UniProt Q06418); settings: Compound concentration 1000.0 nM
[33] = target: RAC-gamma serine/threonine-protein kinase (Homo sapiens) (UniProt Q9Y243); settings: Compound concentration 1000.0 nM
[34] = target: Calcium-dependent protein kinase 1 (Plasmodium falciparum) (UniProt P62344); settings: Compound concentration 1000.0 nM
[35] = target: Serine/threonine-protein kinase D2 (Homo sapiens) (UniProt Q9BZL6); settings: Compound concentration 1000.0 nM
[36] = target: Sodium-dependent serotonin transporter (Homo sapiens) (UniProt P31645); settings: Compound concentration 10.0 uM
[37] = target: Myosin light chain kinase 2, skeletal/cardiac muscle (Homo sapiens) (UniProt Q9H1R3); settings: Compound concentration 1000.0 nM
[38] = target: Serine/threonine-protein kinase LATS1 (Homo sapiens) (UniProt O95835); settings: Compound concentration 1000.0 nM
[39] = target: Dual specificity protein kinase CLK1 (Homo sapiens) (UniProt P49759); settings: Compound concentration 1000.0 nM

Sequence of Serine/threonine-protein kinase D2 (Homo sapiens) (Q9BZL6 whole entry): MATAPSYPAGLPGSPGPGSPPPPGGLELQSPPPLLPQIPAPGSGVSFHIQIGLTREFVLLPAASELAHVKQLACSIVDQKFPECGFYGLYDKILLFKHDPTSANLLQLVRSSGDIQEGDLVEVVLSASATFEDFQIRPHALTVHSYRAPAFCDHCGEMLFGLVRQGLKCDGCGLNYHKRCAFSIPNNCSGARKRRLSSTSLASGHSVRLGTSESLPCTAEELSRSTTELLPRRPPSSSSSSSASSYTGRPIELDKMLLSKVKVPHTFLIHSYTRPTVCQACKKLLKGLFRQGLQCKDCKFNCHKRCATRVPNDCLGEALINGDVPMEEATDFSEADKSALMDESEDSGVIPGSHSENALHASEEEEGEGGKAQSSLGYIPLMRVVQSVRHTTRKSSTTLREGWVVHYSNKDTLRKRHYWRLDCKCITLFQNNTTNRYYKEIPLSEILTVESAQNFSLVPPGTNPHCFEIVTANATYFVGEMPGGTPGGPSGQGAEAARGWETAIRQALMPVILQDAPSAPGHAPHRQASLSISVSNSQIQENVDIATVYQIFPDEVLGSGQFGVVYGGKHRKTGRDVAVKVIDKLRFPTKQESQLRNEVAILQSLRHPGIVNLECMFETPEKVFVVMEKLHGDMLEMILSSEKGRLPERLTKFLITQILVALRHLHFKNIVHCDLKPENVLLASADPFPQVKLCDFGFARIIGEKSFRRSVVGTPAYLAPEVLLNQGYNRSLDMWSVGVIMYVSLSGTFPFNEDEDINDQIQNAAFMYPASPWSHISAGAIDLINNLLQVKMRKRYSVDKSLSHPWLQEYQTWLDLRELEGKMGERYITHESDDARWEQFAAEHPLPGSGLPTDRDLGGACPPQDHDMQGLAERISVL
Sequence of Eukaryotic translation initiation factor 2-alpha kinase 1 (Homo sapiens) (Q9BQI3 whole entry): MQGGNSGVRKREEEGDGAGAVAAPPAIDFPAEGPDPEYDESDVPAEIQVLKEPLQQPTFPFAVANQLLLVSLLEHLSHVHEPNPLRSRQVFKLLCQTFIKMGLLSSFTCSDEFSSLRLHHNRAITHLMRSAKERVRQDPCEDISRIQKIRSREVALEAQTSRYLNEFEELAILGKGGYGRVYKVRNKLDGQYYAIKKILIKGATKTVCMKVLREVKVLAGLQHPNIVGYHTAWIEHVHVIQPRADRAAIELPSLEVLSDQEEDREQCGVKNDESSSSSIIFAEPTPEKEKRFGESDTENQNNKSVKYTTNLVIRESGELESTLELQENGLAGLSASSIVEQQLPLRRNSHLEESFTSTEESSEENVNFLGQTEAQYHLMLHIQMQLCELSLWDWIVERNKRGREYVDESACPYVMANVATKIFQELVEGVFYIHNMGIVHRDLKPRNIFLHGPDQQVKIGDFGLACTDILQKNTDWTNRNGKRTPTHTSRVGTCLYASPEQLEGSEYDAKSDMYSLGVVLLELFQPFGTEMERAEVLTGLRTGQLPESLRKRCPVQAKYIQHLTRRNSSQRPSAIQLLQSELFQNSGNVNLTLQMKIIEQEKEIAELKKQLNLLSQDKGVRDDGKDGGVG
Sequence of Tyrosine-protein kinase JAK3 (Homo sapiens) (P52333 whole entry): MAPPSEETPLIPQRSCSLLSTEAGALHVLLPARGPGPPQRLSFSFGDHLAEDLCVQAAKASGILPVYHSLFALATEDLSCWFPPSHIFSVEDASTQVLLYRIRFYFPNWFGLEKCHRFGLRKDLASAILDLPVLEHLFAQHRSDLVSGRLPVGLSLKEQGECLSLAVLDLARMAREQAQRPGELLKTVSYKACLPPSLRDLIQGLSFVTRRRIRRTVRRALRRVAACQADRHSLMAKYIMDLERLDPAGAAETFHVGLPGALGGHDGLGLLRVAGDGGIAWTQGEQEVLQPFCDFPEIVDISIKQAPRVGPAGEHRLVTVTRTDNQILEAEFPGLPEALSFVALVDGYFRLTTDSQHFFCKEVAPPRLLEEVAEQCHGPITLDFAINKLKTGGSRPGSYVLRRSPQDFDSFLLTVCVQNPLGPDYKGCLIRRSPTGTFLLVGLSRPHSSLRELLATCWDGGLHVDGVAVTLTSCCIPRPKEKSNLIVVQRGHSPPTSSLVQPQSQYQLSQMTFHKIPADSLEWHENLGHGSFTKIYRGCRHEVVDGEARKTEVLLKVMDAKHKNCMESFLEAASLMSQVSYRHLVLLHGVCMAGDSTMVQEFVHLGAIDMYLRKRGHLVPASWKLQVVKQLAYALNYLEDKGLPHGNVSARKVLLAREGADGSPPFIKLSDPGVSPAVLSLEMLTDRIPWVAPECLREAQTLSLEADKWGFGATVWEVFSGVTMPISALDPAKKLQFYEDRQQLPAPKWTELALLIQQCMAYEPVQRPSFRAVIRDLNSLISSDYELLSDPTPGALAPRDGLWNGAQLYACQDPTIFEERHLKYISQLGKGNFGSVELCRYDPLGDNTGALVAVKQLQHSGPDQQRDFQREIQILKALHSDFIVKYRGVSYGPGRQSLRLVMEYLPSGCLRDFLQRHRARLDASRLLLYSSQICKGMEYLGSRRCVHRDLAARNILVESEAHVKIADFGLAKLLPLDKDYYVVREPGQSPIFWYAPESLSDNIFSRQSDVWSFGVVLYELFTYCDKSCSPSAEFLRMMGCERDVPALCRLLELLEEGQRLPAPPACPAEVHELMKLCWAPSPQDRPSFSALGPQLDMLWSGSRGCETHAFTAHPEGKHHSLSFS
Sequence of 1-phosphatidylinositol 3-phosphate 5-kinase (Homo sapiens) (Q9Y2I7 whole entry): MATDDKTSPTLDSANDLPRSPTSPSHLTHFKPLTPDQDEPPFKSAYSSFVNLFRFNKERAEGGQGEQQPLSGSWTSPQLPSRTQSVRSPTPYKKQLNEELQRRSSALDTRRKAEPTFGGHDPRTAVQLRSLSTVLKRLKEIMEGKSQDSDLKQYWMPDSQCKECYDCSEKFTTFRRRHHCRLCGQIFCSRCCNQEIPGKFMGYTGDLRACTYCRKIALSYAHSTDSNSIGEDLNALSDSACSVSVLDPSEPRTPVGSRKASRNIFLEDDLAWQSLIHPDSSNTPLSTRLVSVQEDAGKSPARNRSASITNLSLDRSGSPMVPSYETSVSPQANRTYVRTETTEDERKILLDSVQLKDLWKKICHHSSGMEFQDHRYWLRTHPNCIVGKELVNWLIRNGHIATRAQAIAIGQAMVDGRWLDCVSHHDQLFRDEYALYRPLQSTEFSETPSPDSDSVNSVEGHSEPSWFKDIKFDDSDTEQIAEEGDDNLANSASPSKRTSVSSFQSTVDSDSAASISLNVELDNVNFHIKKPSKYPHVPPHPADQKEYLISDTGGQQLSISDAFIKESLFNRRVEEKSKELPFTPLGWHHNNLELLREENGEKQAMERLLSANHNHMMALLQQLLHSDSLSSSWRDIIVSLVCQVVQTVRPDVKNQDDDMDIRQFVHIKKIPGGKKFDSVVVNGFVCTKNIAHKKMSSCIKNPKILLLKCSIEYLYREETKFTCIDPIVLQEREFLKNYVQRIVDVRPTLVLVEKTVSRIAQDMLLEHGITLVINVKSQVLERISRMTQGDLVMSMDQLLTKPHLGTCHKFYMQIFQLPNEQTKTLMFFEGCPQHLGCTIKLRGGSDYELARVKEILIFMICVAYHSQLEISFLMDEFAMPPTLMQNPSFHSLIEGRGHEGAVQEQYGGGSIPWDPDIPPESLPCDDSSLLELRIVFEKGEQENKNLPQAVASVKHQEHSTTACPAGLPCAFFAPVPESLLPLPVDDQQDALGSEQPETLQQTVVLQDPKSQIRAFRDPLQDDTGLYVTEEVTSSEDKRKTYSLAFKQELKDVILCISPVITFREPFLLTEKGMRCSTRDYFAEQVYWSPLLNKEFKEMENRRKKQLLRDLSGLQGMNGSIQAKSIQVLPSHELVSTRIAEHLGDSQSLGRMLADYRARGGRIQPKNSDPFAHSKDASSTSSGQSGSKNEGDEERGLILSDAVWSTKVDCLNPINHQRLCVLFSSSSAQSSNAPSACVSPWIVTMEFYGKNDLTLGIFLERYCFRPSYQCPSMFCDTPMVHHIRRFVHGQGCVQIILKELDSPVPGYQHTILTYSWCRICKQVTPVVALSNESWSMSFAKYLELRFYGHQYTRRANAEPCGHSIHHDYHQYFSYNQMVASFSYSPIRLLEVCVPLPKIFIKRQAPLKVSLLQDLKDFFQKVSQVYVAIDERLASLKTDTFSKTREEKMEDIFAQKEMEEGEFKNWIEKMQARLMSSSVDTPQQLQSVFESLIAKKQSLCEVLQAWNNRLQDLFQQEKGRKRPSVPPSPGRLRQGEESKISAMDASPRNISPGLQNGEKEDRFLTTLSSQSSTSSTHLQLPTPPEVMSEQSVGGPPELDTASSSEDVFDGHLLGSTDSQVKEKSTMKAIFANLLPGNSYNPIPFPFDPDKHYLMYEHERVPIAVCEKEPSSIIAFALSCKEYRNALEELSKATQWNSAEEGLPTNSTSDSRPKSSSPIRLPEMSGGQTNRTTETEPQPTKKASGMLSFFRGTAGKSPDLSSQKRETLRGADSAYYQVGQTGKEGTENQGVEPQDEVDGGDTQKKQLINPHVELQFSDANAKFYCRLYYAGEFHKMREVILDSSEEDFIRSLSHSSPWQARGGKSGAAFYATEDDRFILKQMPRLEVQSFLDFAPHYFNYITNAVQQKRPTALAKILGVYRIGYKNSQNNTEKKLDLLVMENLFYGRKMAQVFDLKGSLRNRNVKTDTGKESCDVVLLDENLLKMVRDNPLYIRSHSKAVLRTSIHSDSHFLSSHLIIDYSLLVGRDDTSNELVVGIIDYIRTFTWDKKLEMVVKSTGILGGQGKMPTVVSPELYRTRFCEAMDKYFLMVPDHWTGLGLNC
Sequence of Serine/threonine-protein kinase pim-2 (Homo sapiens) (Q9P1W9 whole entry, looked up): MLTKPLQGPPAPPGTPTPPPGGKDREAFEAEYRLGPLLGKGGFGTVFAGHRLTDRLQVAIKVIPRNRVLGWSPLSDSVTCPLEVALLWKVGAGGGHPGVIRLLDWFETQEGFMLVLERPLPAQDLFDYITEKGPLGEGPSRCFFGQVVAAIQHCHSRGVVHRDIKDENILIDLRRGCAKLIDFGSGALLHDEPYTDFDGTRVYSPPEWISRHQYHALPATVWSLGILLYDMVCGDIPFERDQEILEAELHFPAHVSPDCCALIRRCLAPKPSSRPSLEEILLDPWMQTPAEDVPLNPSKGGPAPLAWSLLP

O=C(N1CCS(=O)(=O)CC1)N1C[C@H](c2ccc(OC(F)(F)F)cc2)C[C@H](c2nc(C3CC3)no2)C1 [BAY-386]
inactive: residual activity [1] 100% | residual activity [2] 97% | residual activity [3] 100% | residual activity [4] 100% | residual activity [5] 100% | residual activity [6] 73% | residual activity [7] 100% | residual activity [8] 100% | residual activity [9] 100% | residual activity [10] 98% | residual activity [11] 100% | residual activity [12] 77% | inhibition [13] -5% | residual activity [14] 100% | residual activity [15] 100% | residual activity [16] 100% | residual activity [17] 100% | residual activity [18] 100% | residual activity [19] 100% | residual activity [20] 100% | residual activity [21] 100% | residual activity [22] 100% | residual activity [23] 96% | residual activity [24] 100% | residual activity [25] 100% | residual activity [26] 100% | inhibition [27] -2.63% | residual activity [28] 92% | residual activity [29] 90% | residual activity [30] 100% | residual activity [31] 100% | residual activity [32] 98% | residual activity [33] 100% | residual activity [34] 92% | residual activity [35] 100% | inhibition [36] 8.68% | residual activity [37] 100% | residual activity [38] 100% | residual activity [39] 98%

Cc1noc([C@H]2C[C@@H](c3ccc(C(F)(F)F)cc3)CN(C(=O)N3CCS(=O)(=O)C3)C2)n1 [BAY-448]
inactive: residual activity [1] 85% | residual activity [2] 100% | residual activity [3] 100% | residual activity [4] 100% | residual activity [5] 100% | residual activity [6] 100% | residual activity [7] 100% | residual activity [8] 100% | residual activity [9] 66% | residual activity [10] 100% | residual activity [11] 100% | residual activity [12] 78% | inhibition [13] -4.12% | residual activity [14] 88% | residual activity [15] 85% | residual activity [16] 100% | residual activity [17] 100% | residual activity [18] 91% | residual activity [19] 100% | residual activity [20] 100% | residual activity [21] 100% | residual activity [22] 96% | residual activity [23] 100% | residual activity [24] 100% | residual activity [25] 80% | residual activity [26] 100% | inhibition [27] -0.62% | residual activity [28] 100% | residual activity [29] 100% | residual activity [30] 100% | residual activity [31] 70% | residual activity [32] 100% | residual activity [33] 100% | residual activity [34] 82% | residual activity [35] 100% | inhibition [36] 5.57% | residual activity [37] 100% | residual activity [38] 100% | residual activity [39] 100%
